Data set [1] deals with reserpine-induced hypothermia. Nature of the data set: Antagonistic activity against reserpine-induced hypothermia. In kind it is in vivo, ddY male mice. The note with it: Mus musculus, po, read-out: ED50 (dose exhibiting 50% antagonistic activity against reserpine hypothermia). As to the method:
A. ANTAGONISTIC ACTIVITY AGAINST RESERPINE-INDUCED HYPOTHERMIA
A test was carried out using ddY male mice of 22-25 g in body weight, one group consisting of 6 mice.
The body temperature of mice was approximately 38° C. before the test. At 4 hours after intraperitoneal administration of reserpine in an amount of 5 mg/kg the body temperature of mice was reduced by approximately 8° C. in average. The test compound was simultaneously orally administered with 5 mg/kg of reserpine, and the degree of antagonistic effect of the test compound on the hypothermal action of reserpine was measured. This test has hitherto been the commonest method for evaluating anti-depressant activity.
Percentage (%) of an antagonistic activity was calculated by varying the doses of each test compound.

Data set [2] can be described thus: Acute toxicity (LD50) in male mice. The note with it: mouse, in vivo, po.
The test system of data set [3] is passive avoidance response failure by electric shock. Nature of the data set: Passive avoidance response failure by electric shock as model of amnesia. The note with it: p.o., male Wistar rats, 3 hours or more after oral administration. In kind it is in vivo. The source says:
B. PASSIVE AVOIDANCE RESPONSE FAILURE BY ELECTRIC SHOCK AS MODEL OF AMNESIA
The test apparatus used, called as "Two Compartment Avoidance Box", consisted of a large lit compartment and a small dark compartment having a grid floor to which an electric current can be applied, these two compartments being painted black innerly and connected to each other
Male Wistar rats of 170-220 g in body weight enter into the small box soon after they are introduced into the large box. […] This response is called as "passive avoidance response".
However, if an electric shock of 60 mA, 200 Hz for 0.8 second is given to the rat by electrodes set on both ears of the rat immediately after the rat comes out of the small box upon the application of the electric current, the "passive avoidance response" is inhibited. Indeed, the period for entering into the small box from the large box, latency, is shortened. This phenomenon is caused by loss of memory of the electric current applied from the grid floor by the electric shock. The shortened time of latency is used as an index of the loss of memory.
A memory improvement effect of a test compound is expressed in the degree of prolongation of latency (% improvement) in a test carried out 3 hours or more after the oral administration of the test compound after application of an electric shock.

[4] abbreviates: mice, test compound orally, simultaneously with reserpine 5 mg/kg, body temperature at 4 hours, Litchfield-Wilcoxon method.

Like-named read-outs stand apart in the source and are kept apart here.

Take `CN(C)CCC=C1c2ccccc2CCc2ccccc21` [Amitriptyline, reference compound]: the ED50 in data set [1] (4 h) was found to be 14.5 mg/kg. The compound further yielded an LD50 in data set [2] (male mice) of 380 mg/kg.
As to `Cc1cc2c(-c3ccccc3)nc(N3CCNCC3)nc2s1` [Example 1, 6-METHYL-4-PHENYL-2-PIPERAZINYLTHIENO[2,3-d]PYRIMIDINE], the ED50 in data set [1] (setting [4]) is 2 mg/kg. In data set [2], this compound displayed an LD50 of 1170 mg/kg. Also, the “Improvement (prolongation of latency)” value in data set [3] (25 mg/kg) came to 6.8%; in data set [3] (100 mg/kg), 22.7%.
Turning to `Cc1sc2nc(N3CCNCC3)nc(-c3ccccc3)c2c1C` [Example 4, 5,6-dimethyl-4-phenyl-2-piperazinyl-thieno[2,3-d]pyrimidine], in data set [1] (setting [4]), the 50% effective dose (ED50) amounted to 1.8 mg/kg. The LD50 in data set [2] (male mice) worked out at 1330 mg/kg.
The matching figures for `Cc1csc2nc(N3CCNCC3)nc(-c3ccccc3)c12` [Example 5, 5-methyl-4-phenyl-2-piperazinyl-thieno[2,3-d]pyrimidine]: 4 mg/kg and 275 mg/kg.
In the case of `Clc1cc2c(-c3ccccc3)nc(N3CCNCC3)nc2s1` [Example 7, 6-chloro-4-phenyl-2-piperazinyl-thieno[2,3-d]pyrimidine], the ED50 in data set [1] (setting [4]) turned out to be 2.4 mg/kg.
As to `Cc1cc2c(-c3ccccc3F)nc(N3CCNCC3)nc2s1` [Example 14], the median effective dose (ED50) in data set [1] (setting [4]) was found to be 0.27 mg/kg. This compound had an LD50 in data set [2] of 1110 mg/kg. The “Improvement (prolongation of latency)” value in data set [3] (25 mg/kg) stood at 30.9%; in data set [3] (100 mg/kg), 51.5%.
Consider `Cc1cc2c(-c3ccccc3Br)nc(N3CCNCC3)nc2s1` [Example 15], for which the ED50 in data set [1] (setting [4]) turned out to be 2.9 mg/kg. This compound also gave an LD50 in data set [2] of 1750 mg/kg.
For `Cc1cc2c(-c3ccccc3C)nc(N3CCNCC3)nc2s1` [Example 16], the 50% effective dose (ED50) in data set [1] (setting [4]) came out at 0.5 mg/kg. In data set [2], the LD50 is 1400 mg/kg. Further, the “Improvement (prolongation of latency)” value is listed as 12.8% in data set [3] (25 mg/kg) and 46.6% in data set [3] (100 mg/kg).
As to `Cc1cc2c(-c3ccccc3C#N)nc(N3CCNCC3)nc2s1` [Example 20], in data set [1] (setting [4]), the ED50 was found to be 1.5 mg/kg. The compound further returned a 50% lethal dose (LD50) in data set [2] of 370 mg/kg.
Consider `NC(=O)CN1CCCC1=O` [Piracetam, reference compound], for which the “Improvement (prolongation of latency)” value in data set [3] (250 mg/kg) turned out to be 22.0%; in data set [3] (500 mg/kg), 14.1%.

The ED50 is the midpoint of the dose-response relation. One may read the LD50 as the dose expected to kill half of the subjects tested.

(Values after US4695568A, “Thieno[2,3-d]pyrimidine derivatives and salts thereof” (Mitsubishi Chemical Industries Limited, priority 1984, dated 1987).)
